The source of these data is patent US8476197B2, “Aminopropenoates as fungicides” (priority 2009, dated 2013).

A word on the Log P: it is the decadic logarithm of the partition coefficient of the neutral form, usually between octanol and water. The low end stands for a more hydrophilic compound, the high end for a more lipophilic compound.

Marks after values point to notes of the source that are not given here.

The conditions of one series: pH 2.3.
Regarding `CCCNC(=O)C(C#N)=C(NC(C)C(C)C)c1cccnc1Cl` (centres unmarked) [Compound 988], the “Log P” value worked out at 3.24.

`COC(=O)C(C#N)=C(NC1CCSC1)c1cccnc1Cl` (centres unmarked) [Compound 22]: the log partition coefficient (Log P) is recorded as 2.4.

For `CCOC(=O)C(C#N)=C(NC(C)C(C)C)c1cccnc1C(C)=NO` (centres unmarked) [Compound 985], the “Log P” value is reported as 2.69.

`COC(=O)C(C#N)=C(NC(C)c1nccs1)c1sc(C)nc1C(F)(F)F` (centres unmarked) [Compound 17]: the “Log P” value came out at 2.66.

For the compound `COC(=O)C(C#N)=C(NC(C)C(C)C)c1cccnc1Cl` (centres unmarked) [Compound 931], the lipophilicity (Log P) is 3.

In the case of `CCOC(=O)C(C#N)=C(Nc1ccc(F)cc1F)c1cccnc1Cl` [Compound 1600], the “Log P” value is reported as 2.95.

The series is the same for the next values; noted with them: pH 2.7.
For the compound `CCOC(=O)C(C#N)=C(NC(C)c1nccs1)c1ccnc(Cl)c1Cl` (centres unmarked) [Compound 1276], the log partition coefficient (Log P) is 2.96.

For the compound `CCOC(=O)C(C#N)=C(NC(C)c1nccs1)c1cn(C)nc1C(F)F` (centres unmarked) [Compound 326], the “Log P” value is 2.44^[a].

Consider `CCOC(=O)C(C#N)=C(NCc1ccccc1SC)c1cccnc1Cl` [Compound 1171], for which the “Log P” value was 3.37^[a].

For the compound `CCOC(=O)C(C#N)=C(NC(C)CC)c1cn(C)nc1C(F)F` (centres unmarked) [Compound 833], the “Log P” value was 2.82^[a].

`CC(C)C(C)NC(=C(C#N)C(=O)N(C)C)c1cn(C)nc1C(F)F` (centres unmarked) [Compound 1286]: the “Log P” value is 2.45^[a].

Regarding `CCOC(=O)C(C#N)=C(NC(C)c1nccs1)c1cnc(Cl)cc1Cl` (racemic) [Compound 223], the “Log P” value is 3^[a].

`COC(=O)C(C#N)=C(NC(C)CN(C)C)c1cn(C)nc1C(F)F` (racemic) [Compound 587]: the log partition coefficient (Log P) was 0.82^[a].

For the compound `CCNC(=O)C(C#N)=C(NC(C)c1ccccn1)c1ccnc(Cl)c1Cl` (centres unmarked) [Compound 1201], the “Log P” value is 2.53^[a].

For the compound `C#CCC(C#N)NC(=C(C#N)C(=O)OCC)c1cccnc1Cl` (racemic) [Compound 1258], the lipophilicity (Log P) was 2.37^[a].

As for `CCOC(=O)C(C#N)=C(NC1(c2ccccc2)CC1)c1cn(C)nc1C(F)F` [Compound 1364], the “Log P” value was 3.21^[a].

For `COC(=O)C(C#N)=C(NC(C)c1ccc(C(C)C)cc1)c1cccnc1Cl` (centres unmarked) [Compound 379], the “Log P” value was 4^[a].

Consider `COC(=O)C(C#N)=C(NC(C)Cc1c[nH]c2ccccc12)c1sc(C)nc1C(F)(F)F` (racemic) [Compound 133], for which the “Log P” value is 3.6^[a].

Regarding `CCOC(=O)C(C#N)=C(NC(C)C(N)=O)c1cc(Cl)ncc1Cl` (centres unmarked) [Compound 721], the lipophilicity (Log P) was 2.64^[a].

Turning to `CCOC(=O)C(C#N)=C(NC(C)c1nccs1)c1nc(SC)ncc1Br` (racemic) [Compound 240], the “Log P” value is 3.21^[a].

Consider `CC(C)C(C)NC(=C(C#N)C(=O)NCc1ccccn1)c1cccnc1Cl` (centres unmarked) [Compound 1517], for which the “Log P” value is 1.94^[a].

With `CCOC(=O)/C(C#N)=C(\NC(C)(C)C)c1nc(SC)ncc1Br` [Compound 776], the “Log P” value is 3.82^[a].

As to `C=CC(COCc1ccccc1)NC(=C(C#N)C(=O)OCC)c1sccc1C(F)(F)F` (centres unmarked) [Compound 688], the “Log P” value was 4.36^[a].

`CCNC(=O)C(C#N)=C(NC(C)c1ccncn1)c1cccnc1Cl` (centres unmarked) [Compound 1118]: the “Log P” value was 1.62^[a].

For the compound `CCOC(=O)C(C#N)=C(NC(C)COCc1ccc(C(F)(F)F)cc1)c1cccnc1Cl` (centres unmarked) [Compound 731], the lipophilicity (Log P) was 4.2^[a].

Take `CCOC(=O)C(C#N)=C(NC1(c2cccc(Cl)c2)CC1)c1cn(C)nc1C(F)F` [Compound 1361]: the “Log P” value is 3.51^[a].

Regarding `CCOC(=O)C(C#N)=C(NC(C)COc1c(C)cccc1C)c1sc(C)nc1C(F)(F)F` (racemic) [Compound 677], the “Log P” value was 4.7^[a].

`C#CCNC(=O)C(C#N)=C(NC(C)c1nccs1)c1cn(C)nc1C(F)F` (centres unmarked) [Compound 1297]: the log partition coefficient (Log P) was 2.04^[a].

With `CCOC(=O)C(C#N)=C(NC(C)COCC(C)(C)C)c1cn(C)nc1C(F)F` (centres unmarked) [Compound 1135], the lipophilicity (Log P) was 4.08^[a].

Take `CCOC(=O)C(C#N)=C(NC(C)C(C)C)c1cn(C)nc1C(Cl)Cl` (centres unmarked) [Compound 1562]: the “Log P” value is 3.46^[a].

As to `COC(=O)C(C#N)=C(NC1CCc2ccccc21)c1cccnc1Cl` (centres unmarked) [Compound 1078], the “Log P” value was 3.06^[a].

For the compound `CCCC(C)NC(=C(C#N)C(=O)OCC)c1sccc1C(F)(F)F` (centres unmarked) [Compound 865], the “Log P” value was 4.21^[a].

As for `CCOC(=O)C(C#N)=C(NCc1ccc(F)cn1)c1sc(C)nc1C(F)(F)F` [Compound 204], the “Log P” value is 2.98^[a].

Regarding `CCOC(=O)C(C#N)=C(NC(CC)COC)c1cccnc1Cl` (centres unmarked) [Compound 1367], the “Log P” value was 2.92^[a].

On to `COC(=O)C(C#N)=C(Nc1ccc(C(C)C)cc1)c1sc(C)nc1C(F)(F)F` [Compound 487], for which the “Log P” value was 4.14^[a].

Consider `COC(=O)C(C#N)=C(NC(C)c1nc(C)c(C)s1)c1sc(C)nc1C(F)(F)F` (racemic) [Compound 131], for which the “Log P” value was 3.46^[a].

`CCOC(=O)C(C#N)=C(NC1(C(=O)OCC)CCC1)c1cccnc1Cl` [Compound 1551]: the “Log P” value was 3.17^[a].

As to `CCOC(=O)C(C#N)=C(NC(C)CN1CCCCC1)c1cccnc1Cl` (racemic) [Compound 273], the “Log P” value was 1.2^[a].

`CCOC(=O)C(C#N)=C(NC(C)c1nccs1)c1cn(C)nc1C(Cl)Cl` (centres unmarked) [Compound 1564]: the log partition coefficient (Log P) is 2.75^[a].

With `CCOC(=O)C(C#N)=C(NC(C)c1nccs1)c1ncc(Cl)cc1Cl` (racemic) [Compound 225], the “Log P” value is 3.11^[a].

`CCOC(=O)C(C#N)=C(NC(C)c1nc(C)c(C)s1)c1sc(C)nc1C(F)(F)F` (racemic) [Compound 143]: the log partition coefficient (Log P) was 3.83^[a].

As for `CCOC(=O)C(C#N)=C(Nc1ccc(C#N)cc1)c1cccnc1Cl` [Compound 1265], the “Log P” value is 2.73^[a].

As for `CCOC(=O)C(C#N)=C(NC(C)c1ccccc1C)c1cn(C)nc1C(F)F` (centres unmarked) [Compound 1365], the “Log P” value is 3.46^[a].

Take `COC(=O)C(C#N)=C(NC(C)(C)C(C)(C)C)c1sc(C)nc1C(F)(F)F` [Compound 754]: the “Log P” value was 4.02^[a].

Regarding `CCOC(=O)C(C#N)=C(NC(C)c1nccs1)c1cn(C)nc1CC` (centres unmarked) [Compound 1213], the “Log P” value is 2.35^[a].

In the case of `CCOC(=O)C(C#N)=C(Nc1ccccc1SC)c1cn(C)nc1C(C)F` (racemic) [Compound 521], the “Log P” value is 3.15^[a].

With `CCOC(=O)C(C#N)=C(NC(CC)CC#N)c1cccnc1Cl` (centres unmarked) [Compound 1359], the log partition coefficient (Log P) is 2.51^[a].

With `CCOC(=O)C(C#N)=C(NC1CC1C(F)(F)F)c1cn(C)nc1C(F)F` (centres unmarked) [Compound 1147], the “Log P” value is 2.75^[a].

For `CCOC(=O)C(C#N)=C(NC(C)C(C)(C)C)c1cn(C)nc1C(F)F` (racemic) [Compound 918], the “Log P” value is 3.37^[a].

On to `CCOC(=O)C(C#N)=C(NC(C)(C)C=C(Cl)Cl)c1cccnc1Cl` [Compound 1271], for which the “Log P” value is 3.55^[a].

Regarding `CCOC(=O)C(C#N)=C(NC(C)c1ccc(F)cc1)c1ccsc1Br` (racemic) [Compound 531], the “Log P” value is 3.89^[a].

Turning to `CCOC(=O)C(C#N)=C(NC(c1cc2ccccc2s1)C(F)(F)F)c1ncc(C(F)(F)F)cc1Cl` (centres unmarked) [Compound 73], the log partition coefficient (Log P) was 4.94^[a].

In the case of `CCOC(=O)C(C#N)=C(NC(C)C(N)=O)c1sccc1Br` (centres unmarked) [Compound 611], the “Log P” value was 1.9^[a].

In the case of `CCOC(=O)C(C#N)=C(NC(C)c1nccs1)c1cnccc1Cl` (racemic) [Compound 258], the “Log P” value is 2.78^[a].

Regarding `CCOC(=O)C(C#N)=C(NC(C)c1ccc(C)cc1)c1cccnc1Cl` (centres unmarked) [Compound 1150], the “Log P” value is 3.87^[a].

In the case of `CCOC(=O)C(C#N)=C(NC1CCC1)c1ccncc1Cl` [Compound 798], the “Log P” value was 2.84^[a].

For the compound `CCOC(=O)C(C#N)=C(NC1CCS(=O)(=O)C1)c1cccnc1Cl` (centres unmarked) [Compound 1369], the “Log P” value was 1.84^[a].

For `CCOC(=O)C(C#N)=C(NC(COC)COC)c1cccnc1Cl` [Compound 1358], the “Log P” value is 2.56^[a].

On to `COC(=O)C(C#N)=C(NC(C)c1nccs1)c1sc(C)nc1C(F)(F)F` (centres unmarked) [Compound 17], for which the “Log P” value worked out at 2.78.

For `CCOC(=O)C(C#N)=C(NCc1nc2ccccc2s1)c1sc(C)nc1C(F)(F)F` [Compound 197], the lipophilicity (Log P) was 3.48^[a].

Turning to `CCNC(=O)C(C#N)=C(NC(C)c1ccccn1)c1ccnc(C)c1Cl` (racemic) [Compound 1277], the “Log P” value is 2.7^[a].

Consider `CCOC(=O)C(C#N)=C(NC(C)(C)C#Cc1ccc(C)cc1)c1sccc1Br` [Compound 1096], for which the “Log P” value is 5.05^[a].

With `COC(=O)C(C#N)=C(NC(C)C(C)C)c1cccnc1Cl` (centres unmarked) [Compound 931], the “Log P” value came to 2.76.

Turning to `CCOC(=O)C(C#N)=C(NC(C)c1cncnc1C(F)(F)F)c1cccnc1Cl` (centres unmarked) [Compound 1528], the “Log P” value is 2.63^[a].

On to `CCOC(=O)C(C#N)=C(NC(C)CN)c1ncc(C(F)(F)F)cc1Cl` (racemic) [Compound 589], for which the “Log P” value is 1.59^[a].

Take `CCOC(=O)C(C#N)=C(NC(C)COc1ccccc1Cl)c1cn(C)nc1C(F)F` (centres unmarked) [Compound 741]: the “Log P” value was 3.6^[a].

Turning to `CCOC(=O)C(C#N)=C(NC(C)CON=C(C)c1ccccc1)c1cccnc1Cl` (centres unmarked) [Compound 1111], the “Log P” value was 3.96^[a].

In the case of `CCOC(=O)C(C#N)=C(NC(C)C(C)C)c1c(C)nn(C)c1F` (centres unmarked) [Compound 936], the “Log P” value was 3.19^[a].

The same series, now with this note: pH 7.5.
Regarding `CCOC(=O)C(C#N)=C(NC(C)c1nccs1)c1ccnc(Cl)c1Cl` (centres unmarked) [Compound 1276], the “Log P” value is 2.91.

For the compound `CCCNC(=O)C(C#N)=C(NC(C)C(C)C)c1cccnc1Cl` (centres unmarked) [Compound 988], the “Log P” value is given as 3.22.

In the case of `COC(=O)C(C#N)=C(NC1CCSC1)c1cccnc1Cl` (centres unmarked) [Compound 22], the “Log P” value is 2.23.

Consider `CC(NC(=C(C#N)C(=O)OC(C)C(F)(F)F)c1cccnc1Cl)c1nccs1` (mixture of isomers) [Compound 56], for which the lipophilicity (Log P) is given as 2.94.

In the case of `CCOC(=O)C(C#N)=C(NC(C)C(C)C)c1cccnc1C(C)=NO` (centres unmarked) [Compound 985], the “Log P” value came to 2.67.

On to `CCNC(=O)C(C#N)=C(NC(C)c1nccs1)c1ccc(Cl)nc1Cl` (centres unmarked) [Compound 1471], for which the “Log P” value stood at 2.65.

Turning to `CCOC(=O)C(C#N)=C(NC(C)c1ccccn1)c1ccc(Cl)nc1Cl` (centres unmarked) [Compound 1381], the “Log P” value amounted to 3.06.

In the case of `COC(=O)C(C#N)=C(NC(C)c1sc(C)nc1C)c1cccnc1Cl` (centres unmarked) [Compound 26], the “Log P” value came out at 2.17.

Consider `COC(=O)C(C#N)=C(NC(C)c1nccs1)c1sc(C)nc1C(F)(F)F` (centres unmarked) [Compound 17], for which the “Log P” value was determined as 2.63.

As for `COC(=O)C(C#N)=C(NC(C)C(C)C)c1cccnc1Cl` (centres unmarked) [Compound 931], the “Log P” value was found to be 2.83.

Consider `COC(=O)C(C#N)=C(NCC1CCCO1)c1cccnc1Cl` (centres unmarked) [Compound 16], for which the “Log P” value is on record as 2.03.

With `CCOC(=O)C(C#N)=C(Nc1ccc(F)cc1F)c1cccnc1Cl` [Compound 1600], the “Log P” value stood at 2.9.
